From US20260345619A1 (Principia Biopharma Inc., priority 2023, published 2026)

Assay: Asthma Quality of Life Questionnaire with Standardized Activities (AQLQ(S))
Type: in vivo, human
Settings: for AQLQ global score responders at Week 12, number / AQLQ global score responders at Week 12, percentage: improvement ≥0.5 from baseline
Source text: The AQLQ(S) is a self-administered patient reported outcome to measure the functional impairments that are most troublesome to adolescents and adults ≥12 years of age as a result of their asthma.
Asthma Quality of Life Questionnaire with Standardized Activities (AQLQ(S)) self-administered (≥12 years)
The AQLQ(S) was designed as a self-administered patient reported outcome to measure the functional impairments that are most troublesome to adolescents and adults ≥12 years of age as a result of their asthma. The instrument is comprised of 32 items, each rated on a 7-point Likert scales from 1 to 7. The AQLQ(S) has 4 domains. The domains and the number of items in each domain are as follows: • Symptoms (12 items) • Activity limitation (11 items) • Emotional function (5 items) • Environmental stimuli (4 items)
A global score is calculated ranging from 1 to 7 and a score by domain. Higher scores indicate better quality of life. […] Patients were to complete the questionnaire in an electronic diary during on-site visits.
Secondary endpoints included pre-bronchodilator FEV1 change from baseline at EOT, ACQ-5 score change from baseline, and AQLQ score change from baseline. Other secondary and exploratory endpoints are described in Table 2.

[1] = 400 mg BID, observed/LOCF imputed, n=29, mITT
[2] = 400 mg TID, observed/LOCF imputed, n=53, mITT

CC(C)(C=C(C#N)C(=O)N1CCC[C@@H](n2nc(-c3ccc(Oc4ccccc4)cc3F)c3c(N)ncnc32)C1)N1CCN(C2COC2)CC1 (mixture of isomers) [rilzabrutinib, (R)-2-[3-[4-amino-3-(2-fluoro-4-phenoxy-phenyl)pyrazolo[3,4-d]pyrimidin-1-yl]piperidine-1-carbonyl]-4-methyl-4-[4-(oxetan-3-yl)piperazin-1-yl]pent-2-enenitrile]
AQLQ global score responder analysis at Week 12, OR vs. placebo (95% CI) (400 mg BID, 95% CI 1.19, 20.17, mITT): 4.89 | AQLQ global score responders (including multiply imputed) at Week 12, number (400 mg BID, N=32, mITT): 16.6 | AQLQ global score responders (including multiply imputed) at Week 12, percentage (400 mg BID, N=32, mITT): (51.7) | AQLQ global score responders at Week 12, number [1]: 15 | AQLQ global score responders at Week 12, percentage [1]: (51.7) (14/1) % | AQLQ global score change from baseline at Week 12, LS Mean Diff vs. placebo (400 mg BID, mITT, 1 asthma exacerbation within 2 years): 0.75 | AQLQ global score change from baseline at Week 12, LS Mean Diff vs. placebo (400 mg BID, mITT, 2 asthma exacerbations within 2 years): 0.61 | AQLQ global score change from baseline at Week 12, LS Mean Diff vs. placebo (400 mg BID, mITT, >2 asthma exacerbations within 2 years): 1.18 | AQLQ global score change from baseline at Week 12, LS Mean Diff vs. placebo (400 mg BID, mITT, Eastern Europe): 0.08 | AQLQ global score change from baseline at Week 12, LS Mean Diff vs. placebo (400 mg BID, mITT, Latin America): 0.87 | AQLQ global score change from baseline at Week 12, LS Mean Diff vs. placebo (400 mg BID, mITT, age <45 years): 0.20 | AQLQ global score change from baseline at Week 12, LS Mean Diff vs. placebo (400 mg BID, mITT, age at asthma onset <12 years): 0.34 | AQLQ global score change from baseline at Week 12, LS Mean Diff vs. placebo (400 mg BID, mITT, age at asthma onset <18 years): 0.43 | AQLQ global score change from baseline at Week 12, LS Mean Diff vs. placebo (400 mg BID, mITT, age at asthma onset ≥12-<18 years): 2.49 | AQLQ global score change from baseline at Week 12, LS Mean Diff vs. placebo (400 mg BID, mITT, age at asthma onset ≥18-<40 years): 0.57 | AQLQ global score change from baseline at Week 12, LS Mean Diff vs. placebo (400 mg BID, mITT, age at asthma onset ≥18 years): 0.75 | AQLQ global score change from baseline at Week 12, LS Mean Diff vs. placebo (400 mg BID, mITT, age at asthma onset ≥40 years): 0.93 | AQLQ global score change from baseline at Week 12, LS Mean Diff vs. placebo (400 mg BID, mITT, age ≥45 years): 1.04 | AQLQ global score change from baseline at Week 12, LS Mean Diff vs. placebo (400 mg BID, mITT, all others than low EOS and low FeNO): 0.61 | AQLQ global score change from baseline at Week 12, LS Mean Diff vs. placebo (400 mg BID, mITT, atopic medical conditions: no): 1.08 | AQLQ global score change from baseline at Week 12, LS Mean Diff vs. placebo (400 mg BID, mITT, atopic medical conditions: yes): 0.52 | AQLQ global score change from baseline at Week 12, LS Mean Diff vs. placebo (400 mg BID, mITT, baseline ACQ-5 score >2): 0.95 | AQLQ global score change from baseline at Week 12, LS Mean Diff vs. placebo (400 mg BID, mITT, baseline ACQ-5 score ≤2): 0.43 | AQLQ global score change from baseline at Week 12, LS Mean Diff vs. placebo (400 mg BID, mITT, baseline BMI <25 kg/m^2): 1.00 | AQLQ global score change from baseline at Week 12, LS Mean Diff vs. placebo (400 mg BID, mITT, baseline BMI ≥25-<30 kg/m^2): 0.67 | AQLQ global score change from baseline at Week 12, LS Mean Diff vs. placebo (400 mg BID, mITT, baseline BMI ≥30 kg/m^2): 0.73 | AQLQ global score change from baseline at Week 12, LS Mean Diff vs. placebo (400 mg BID, mITT, baseline FEV1 reversibility <12%): 0.73 | AQLQ global score change from baseline at Week 12, LS Mean Diff vs. placebo (400 mg BID, mITT, baseline FEV1 reversibility ≥12%): 0.29 | AQLQ global score change from baseline at Week 12, LS Mean Diff vs. placebo (400 mg BID, mITT, baseline FeNO <25 ppb): 0.98 | AQLQ global score change from baseline at Week 12, LS Mean Diff vs. placebo (400 mg BID, mITT, baseline FeNO <35 ppb): 0.84 | AQLQ global score change from baseline at Week 12, LS Mean Diff vs. placebo (400 mg BID, mITT, baseline FeNO ≥25 ppb): 0.51 | AQLQ global score change from baseline at Week 12, LS Mean Diff vs. placebo (400 mg BID, mITT, baseline FeNO ≥35 ppb): 0.77 | AQLQ global score change from baseline at Week 12, LS Mean Diff vs. placebo (400 mg BID, mITT, baseline IgE <100 IU/mL): 0.90 | AQLQ global score change from baseline at Week 12, LS Mean Diff vs. placebo (400 mg BID, mITT, baseline IgE <median 210.8 IU/mL): 1.03 | AQLQ global score change from baseline at Week 12, LS Mean Diff vs. placebo (400 mg BID, mITT, baseline IgE ≥100 IU/mL): 0.59 | AQLQ global score change from baseline at Week 12, LS Mean Diff vs. placebo (400 mg BID, mITT, baseline IgE ≥median 210.8 IU/mL): 0.67 | AQLQ global score change from baseline at Week 12, LS Mean Diff vs. placebo (400 mg BID, mITT, baseline blood eosinophil level 1 <0.15 10^9/L): 0.62 | AQLQ global score change from baseline at Week 12, LS Mean Diff vs. placebo (400 mg BID, mITT, baseline blood eosinophil level 1 ≥0.15 10^9/L): 0.69 | AQLQ global score change from baseline at Week 12, LS Mean Diff vs. placebo (400 mg BID, mITT, baseline blood eosinophil level 2 <0.3 10^9/L): 0.79 | AQLQ global score change from baseline at Week 12, LS Mean Diff vs. placebo (400 mg BID, mITT, baseline blood eosinophil level 2 ≥0.3 10^9/L): 0.67 | AQLQ global score change from baseline at Week 12, LS Mean Diff vs. placebo (400 mg BID, mITT, baseline percent predicted FEV1 <68%): 0.92 | AQLQ global score change from baseline at Week 12, LS Mean Diff vs. placebo (400 mg BID, mITT, baseline percent predicted FEV1 ≥68%): 0.47 | AQLQ global score change from baseline at Week 12, LS Mean Diff vs. placebo (400 mg BID, mITT, baseline pre-bronchodilator FEV1 <2.022 L): 0.89 | AQLQ global score change from baseline at Week 12, LS Mean Diff vs. placebo (400 mg BID, mITT, baseline pre-bronchodilator FEV1 ≥2.022 L): 0.54 | AQLQ global score change from baseline at Week 12, LS Mean Diff vs. placebo (400 mg BID, mITT, baseline weight <60 kg): 1.63 | AQLQ global score change from baseline at Week 12, LS Mean Diff vs. placebo (400 mg BID, mITT, baseline weight ≥60-<90 kg): 0.70 | AQLQ global score change from baseline at Week 12, LS Mean Diff vs. placebo (400 mg BID, mITT, baseline weight ≥90 kg): −0.26 | AQLQ global score change from baseline at Week 12, LS Mean Diff vs. placebo (400 mg BID, mITT, female): 0.73 | AQLQ global score change from baseline at Week 12, LS Mean Diff vs. placebo (400 mg BID, mITT, former smokers): 1.89 | AQLQ global score change from baseline at Week 12, LS Mean Diff vs. placebo (400 mg BID, mITT, low EOS (<0.15) and low FeNO (<25)): 2.45 | AQLQ global score change from baseline at Week 12, LS Mean Diff vs. placebo (400 mg BID, mITT, male): 0.41 | AQLQ global score change from baseline at Week 12, LS Mean Diff vs. placebo (400 mg BID, mITT, never smokers): 0.65 | AQLQ global score non-responders at Week 12, number [1]: 14 | AQLQ global score non-responders at Week 12, percentage [1]: (48.3) (10/4) | participants with AQLQ improvement of at least 0.5 from baseline at Week 12 (400 mg BID, placebo 34.5%, p=0.0281): 51.7% | AQLQ global score responder analysis at Week 12, OR vs. placebo (95% CI) (400 mg TID, 95% CI 1.02, 4.89, mITT): 2.23 | AQLQ global score responders (including multiply imputed) at Week 12, number (400 mg TID, N=64, mITT): 32.9 | AQLQ global score responders (including multiply imputed) at Week 12, percentage (400 mg TID, N=64, mITT): (51.4) | AQLQ global score responders at Week 12, number [2]: 29 | AQLQ global score responders at Week 12, percentage [2]: (54.7) (28/1) % | AQLQ global score change from baseline at Week 12, LS Mean Diff vs. placebo (400 mg TID, mITT, 1 asthma exacerbation within 2 years): 0.29 | AQLQ global score change from baseline at Week 12, LS Mean Diff vs. placebo (400 mg TID, mITT, 2 asthma exacerbations within 2 years): 0.27 | AQLQ global score change from baseline at Week 12, LS Mean Diff vs. placebo (400 mg TID, mITT, Eastern Europe): 0.43 | AQLQ global score change from baseline at Week 12, LS Mean Diff vs. placebo (400 mg TID, mITT, Latin America): −0.22 | AQLQ global score change from baseline at Week 12, LS Mean Diff vs. placebo (400 mg TID, mITT, age <45 years): 0.43 | AQLQ global score change from baseline at Week 12, LS Mean Diff vs. placebo (400 mg TID, mITT, age at asthma onset <12 years): 0.46 | AQLQ global score change from baseline at Week 12, LS Mean Diff vs. placebo (400 mg TID, mITT, age at asthma onset <18 years): 0.31 | AQLQ global score change from baseline at Week 12, LS Mean Diff vs. placebo (400 mg TID, mITT, age at asthma onset ≥12-<18 years): −0.37 | AQLQ global score change from baseline at Week 12, LS Mean Diff vs. placebo (400 mg TID, mITT, age at asthma onset ≥18-<40 years): 0.25 | AQLQ global score change from baseline at Week 12, LS Mean Diff vs. placebo (400 mg TID, mITT, age at asthma onset ≥18 years): 0.24 | AQLQ global score change from baseline at Week 12, LS Mean Diff vs. placebo (400 mg TID, mITT, age at asthma onset ≥40 years): 0.29 | AQLQ global score change from baseline at Week 12, LS Mean Diff vs. placebo (400 mg TID, mITT, age ≥45 years): 0.15
